Experimental data from publication PMC10891265 (2024).

Test system: ATP aptamer (Apt-POSS) (DNA, aptamer) CCACCACGGTGGTGGTGGTTGTGGTGC
Assay: UV absorption at 260 nm after centrifugation, Langmuir fit
Conditions: PBS, 30 min

| binding (control nucleotide, captured less than ATP, ATP series 1 μM to 2 mM) | K (0.1 mg particle/mL, aptamer on nanoparticles, apparent) | SMILES |
| --- | --- | --- |
| weak |  | Nc1ccn([C@@H]2O[C@H](COP(=O)(O)OP(=O)(O)OP(=O)(O)O)[C@@H](O)[C@H]2O)c(=O)n1 |
|  | 46.5 ± 18.5 µM | Nc1ncnc2c1ncn2[C@@H]1O[C@H](COP(=O)(O)OP(=O)(O)OP(=O)(O)O)[C@@H](O)[C@H]1O |
